# Test results as given in patent publication US11685729B2, “C5a receptor modulators” (IDORSIA PHARMACEUTICALS LTD., priority 2018, dated 2023).
# Biological target: C5AR1 (Homo sapiens (Human), UniProt P21730)
# Experiment: In vitro assay: PathHunter beta-arrestin antagonist assay in CHO-K1 C5AR1 beta-arrestin cell line, stimulated with C5a agonist
# Conditions: not given
# C5AR1, sequence (P21730 whole entry): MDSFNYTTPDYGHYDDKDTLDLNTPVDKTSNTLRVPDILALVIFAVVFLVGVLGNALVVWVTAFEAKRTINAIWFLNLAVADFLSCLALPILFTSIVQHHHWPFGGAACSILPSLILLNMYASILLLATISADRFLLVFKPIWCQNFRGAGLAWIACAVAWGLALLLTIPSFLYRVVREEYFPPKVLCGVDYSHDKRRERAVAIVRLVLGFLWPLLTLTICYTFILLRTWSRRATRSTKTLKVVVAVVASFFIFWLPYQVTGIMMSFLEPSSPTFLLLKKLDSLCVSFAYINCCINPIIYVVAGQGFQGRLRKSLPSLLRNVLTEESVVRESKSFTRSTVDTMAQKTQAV
row,IC50,SMILES
1,1790 nM,"Cc1cccc(F)c1N1CCC(N2Cc3ccccc3N(Cc3nnccc3OC(C)C)C2=O)CC1 [Example 80, 3-[1-(2-Fluoro-6-methyl-phenyl)-piperidin-4-yl]-1-(4-isopropoxy-pyridazin-3-ylmethyl)-3,4-dihydro-1H-quinazolin-2-one]"

# Same assay, conditions: read-out: C5aR IC50; CHO-K1 C5AR1 beta-arrestin cell line; 1-10 nM C5a agonist; geometric mean values
row,SMILES,IC50
1,"Cc1cccc(F)c1N1CCC(N2Cc3ccccc3N(Cc3nccnc3OC(C)C)C2=O)CC1 [Example 59, 3-[1-(2-Fluoro-6-methyl-phenyl)-piperidin-4-yl]-1-(3-isopropoxy-pyrazin-2-ylmethyl)-3,4-dihydro-1H-quinazolin-2-one]",38 nM
2,"Cc1cccc(F)c1N1CCC(N2Cc3ccccc3N(Cc3ncccc3OC(C)C)C2=O)CC1 [Example 60, 3-[1-(2-Fluoro-6-methyl-phenyl)-piperidin-4-yl]-1-(3-isopropoxy-pyridin-2-ylmethyl)-3,4-dihydro-1H-quinazolin-2-one]",28 nM
3,"Cc1cccc(F)c1N1CCC(N2Cc3ccccc3N(Cc3cnccc3C(C)C)C2=O)CC1 [Example 61, 3-[1-(2-Fluoro-6-methyl-phenyl)-piperidin-4-yl]-1-(4-isopropyl-pyridin-3-ylmethyl)-3,4-dihydro-1H-quinazolin-2-one]",36 nM
4,"Cc1cccc(F)c1N1CCC(N2Cc3ccccc3N(Cc3nccnc3C(C)C)C2=O)CC1 [Example 62, 3-[1-(2-Fluoro-6-methyl-phenyl)-piperidin-4-yl]-1-(3-isopropyl-pyrazin-2-ylmethyl)-3,4-dihydro-1H-quinazolin-2-one]",38 nM
5,"Cc1cccc(F)c1N1CCC(N2Cc3ccccc3N(Cc3cncnc3C(C)C)C2=O)CC1 [Example 63, 3-[1-(2-Fluoro-6-methyl-phenyl)-piperidin-4-yl]-1-(4-isopropyl-pyrimidin-5-ylmethyl)-3,4-dihydro-1H-quinazolin-2-one]",61 nM
6,"Cc1cccc(F)c1N1CCC(N2Cc3cncnc3N(Cc3ccccc3C(F)(F)F)C2=O)CC1 [Example 64, 3-[1-(2-Fluoro-6-methyl-phenyl)-piperidin-4-yl]-1-(2-trifluoromethyl-benzyl)-3,4-dihydro-1H-pyrimido[4,5-d]pyrimidin-2-one]",782 nM
7,"Cc1cccc(F)c1N1CCC(N2Cc3ccccc3N(Cc3cccnc3C(F)(F)F)C2=O)CC1 [Example 65, 3-[1-(2-Fluoro-6-methyl-phenyl)-piperidin-4-yl]-1-(2-trifluoromethyl-pyridin-3-ylmethyl)-3,4-dihydro-1H-quinazolin-2-one]",67 nM
8,"Cc1cccc(F)c1N1CCC(N2Cc3nnccc3N(Cc3ccccc3C(F)(F)F)C2=O)CC1 [Example 66, 7-[1-(2-Fluoro-6-methyl-phenyl)-piperidin-4-yl]-5-(2-trifluoromethyl-benzyl)-7,8-dihydro-5H-pyrimido[5,4-c]pyridazin-6-one]",1920 nM
9,"Cc1cccc(F)c1N1CCC(N2Cc3ccccc3N(Cc3cnccc3C(F)(F)F)C2=O)CC1 [Example 67, 3-[1-(2-Fluoro-6-methyl-phenyl)-piperidin-4-yl]-1-(4-trifluoromethyl-pyridin-3-ylmethyl)-3,4-dihydro-1H-quinazolin-2-one]",46 nM
10,"Cc1cccc(F)c1N1CCC(N2Cc3ccccc3N(Cc3ccccc3OC3CC3)C2=O)CC1 [Example 68, 1-(2-Cyclopropoxy-benzyl)-3-[1-(2-fluoro-6-methyl-phenyl)-piperidin-4-yl]-3,4-dihydro-1H-quinazolin-2-one]",66 nM
11,"Cc1cccc(F)c1N1CCC(N2Cc3ccccc3N(Cc3ncccc3C(F)(F)F)C2=O)CC1 [Example 69, 3-[1-(2-Fluoro-6-methyl-phenyl)-piperidin-4-yl]-1-(3-trifluoromethyl-pyridin-2-ylmethyl)-3,4-dihydro-1H-quinazolin-2-one]",13 nM
12,"Cc1nn(C)c(N2CCC(N3Cc4ccccc4N(Cc4ccccc4C(F)(F)F)C3=O)CC2)c1C#N [Example 72, 1,3-Dimethyl-5-{4-[2-oxo-1-(2-trifluoromethyl-benzyl)-1,4-dihydro-2H-quinazolin-3-yl]-piperidin-1-yl}-1H-pyrazole-4-carbonitrile]",2660 nM
13,"Cc1nn(C)c(N2CCC(N3Cc4ccccc4N(Cc4ccccc4C(F)(F)F)C3=O)CC2)c1Cl [Example 73, 3-[1-(4-Chloro-2,5-dimethyl-2H-pyrazol-3-yl)-piperidin-4-yl]-1-(2-trifluoromethyl-benzyl)-3,4-dihydro-1H-quinazolin-2-one]",1340 nM

# More lines, now with the values ahead:
row,IC50,SMILES
1,17 nM,"Cc1cccc(F)c1N1CCC(N2Cc3ccccc3N(Cc3ccccc3OC(F)(F)F)C2=O)CC1 [Example 74, 3-[1-(2-Fluoro-6-methyl-phenyl)-piperidin-4-yl]-1-(2-trifluoromethoxy-benzyl)-3,4-dihydro-1H-quinazolin-2-one]"
2,55 nM,"Cc1cccc(F)c1N1CCC(N2Cc3ccccc3N(Cc3ccccc3Cl)C2=O)CC1 [Example 75, 1-(2-Chloro-benzyl)-3-[1-(2-fluoro-6-methyl-phenyl)-piperidin-4-yl]-3,4-dihydro-1H-quinazolin-2-one]"
3,50 nM,"O=C1N(Cc2ccccc2C(F)(F)F)c2ccccc2CN1C1CCN(c2c(F)cccc2C(F)(F)F)CC1 [Example 76, 3-[1-(2-Fluoro-6-trifluoromethyl-phenyl)-piperidin-4-yl]-1-(2-trifluoromethyl-benzyl)-3,4-dihydro-1H-quinazolin-2-one]"
4,175 nM,"Cc1cccc(F)c1N1CCCC(N2Cc3ccccc3N(Cc3ccccc3C(F)(F)F)C2=O)CC1 (stereo not shown) [Example 77, 3-[1-(2-Fluoro-6-methyl-phenyl)-azepan-4-yl]-1-(2-trifluoromethyl-benzyl)-3,4-dihydro-1H-quinazolin-2-one]"
5,80 nM,"O=C1N(Cc2ccccc2C(F)(F)F)c2ccccc2CN1C1CCN(c2c(F)cccc2OC(F)(F)F)CC1 [Example 78, 3-[1-(2-Fluoro-6-trifluoromethoxy-phenyl)-piperidin-4-yl]-1-(2-trifluoromethyl-benzyl)-3,4-dihydro-1H-quinazolin-2-one]"
6,57 nM,"Cc1cccc(Cl)c1N1CCC(N2Cc3ccccc3N(Cc3ccccc3C(F)(F)F)C2=O)CC1 [Example 79, 3-[1-(2-Chloro-6-methyl-phenyl)-piperidin-4-yl]-1-(2-trifluoromethyl-benzyl)-3,4-dihydro-1H-quinazolin-2-one]"
7,1280 nM,"Cc1cccc(F)c1N1CC(N2Cc3ccccc3N(Cc3ccccc3C(F)(F)F)C2=O)C1 [Example 81, 3-[1-(2-Fluoro-6-methyl-phenyl)-azetidin-3-yl]-1-(2-trifluoromethyl-benzyl)-3,4-dihydro-1H-quinazolin-2-one]"
8,1320 nM,"Cc1nc(C(F)(F)F)c(CN2C(=O)N(C3CCN(c4c(C)cccc4F)CC3)Cc3ccccc32)s1 [Example 83, 3-[1-(2-Fluoro-6-methyl-phenyl)-piperidin-4-yl]-1-(2-methyl-4-trifluoromethyl-thiazol-5-ylmethyl)-3,4-dihydro-1H-quinazolin-2-one]"
